Results on one molecule are retold here after paper PMC9228270, “Design, Synthesis, In Silico Studies and Inhibitory Activity towards Bcr-Abl, BTK and FLT3-ITD of New 2,6,9-Trisubstituted Purine Derivatives as Potential Agents for the Treatment of Leukaemia” (Pharmaceutics, 2022).

The structures appear in SMILES notation.

The subject of experiment [1] is MV4-11 cells. Kind of experiment: Flow cytometry cell cycle, MV4-11. In kind it is cell-based. To be noted: 24 h, sub-micromolar concentrations. On the procedure: Cell cycle effects were measured using flow cytometric determination of DNA content. MV4-11 and K562 cells were treated with tested compounds for 24 h. After the staining with propidium iodide, the DNA content was analysed by flow cytometry using a 488 nm laser (BD FACS Verse with software BD FACSuite^TM, version 1.0.6.). The cell cycle distribution was analysed using ModFit LT (Verity Software House 5.0, Topsham, ME, USA).

Experiment [2] deals with caspase 3/7 activity in MV4-11 cells. Briefly: Caspase-3/7 assay, MV4-11. It counts as cell-based. Particulars: 24 h. As to the method:
MV4-11 and K562 cells were kept in a 96-well plate were treated with increasing concentrations of compound 4i and 5b for 24 h. After this period, caspase-3/7 assay buffer (150 mM HEPES pH 7.4, 450 mM NaCl, 150 mM KCl, 30 mM MgCl2, 1.2 mM EGTA, 1.5% Nonidet P40, 0.3% CHAPS, 30% sucrose, 30 mM DTT, and 3 mM PMSF) containing 150 µM peptide substrate Ac-DEVD-AMC (Enzo Life Sciences, Farmingdale, NY, USA) was added, and after 2 h incubation, the fluorescence of AMC was measured using a Fluoroskan Ascent microplate reader (Labsystems) at 346 nm/442 nm (excitation/emission).

The subject of experiment [3] is MV4-11. Briefly: Cytotoxicity assay (resazurin), MV4-11. In kind it is cell-based. Particulars: Homo sapiens, 72 h, three independent experiments, range 0.1 to 25 µM. On the procedure: (§1) Cytotoxicity assays for the purines were quantified using the resazurin method, a dye to measure redox reactions occurring in the mitochondria of live cells. The cells were treated by tested compounds (in triplicate, six different doses) for 72 h.

The target of experiment [4] is T1, Cdk-2/cyclin E (Homo sapiens, UniProt P24941).
T1 construct: made in house
Kind of experiment: Recombinant kinase radioassay, Cdk-2/cyclin E. It counts as biochemical. Particulars: ATP 15 µM, at least three independent experiments, range 0.01–100 µM. A digest of the protocol:
(§2)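 Radiometric kinase assay: 0.05 µCi [γ-33P]ATP in HEPES pH 7.5 buffer with Mg2+/Mn2+, vanadate, DTT. Commercial BTK with 100 µM poly(Glu:Tyr 4:1), 15 µM ATP. In-house Cdk-2/cyclin E with 1 mg/mL histone H1, 15 µM ATP. H3PO4 stop, phosphocellulose capture, phosphorimager read.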

In experiment [5] the test system is PARP-1 cleavage in MV4-11. Kind of experiment: Immunoblotting of PARP-1 cleavage, MV4-11. It counts as cell-based. To be noted: MV4-11 cells, 4 h. On the procedure:
Protein changes in the treated cells were analysed using immunoblotting. Briefly, cell lysates were separated on SDS-polyacrylamide gels and electroblotted onto nitrocellulose membranes. After blocking, overnight incubation with specific primary antibodies and incubation with peroxidase-conjugated secondary antibodies, the peroxidase activity was detected with Super-Signal West Pico reagents (Thermo Scientific, Waltham, MA, USA) using a CCD camera LAS-4000 (Fujifilm). The following specific antibodies were purchased from Cell Signalling: anti-FLT3 (clone 8F2), anti-phospho-FLT3 Y589/591 (clone 30D4), anti-STAT5 (clone D2O6Y), anti-phospho-STAT5 Y694, anti-ERK1/2, anti-phospho-ERK1/2 T202/Y204, anti-Akt (clone C67E7), anti-phospho-Akt S473 (clone D9E), anti-phospho-Bcr Y177, anti-CrkL (clone 32H4), anti-phospho-CrkL Y207, anti-BTK (clone C82B8), anti-phospho-BTK Y223, anti-PLCγ2, anti-phospho-PLCγ2 Y1217, and anti-PARP-1 (clone 46D11). […]
Finally, we analysed the mechanism of cell death induced by the prepared compounds 4i and 5b. Proteolytic cleavage of PARP-1—a well-established protein involved in apoptosis—was analysed in K562 and MV4-11 treated with respective compounds for 4 h. […] The PARP-1 fragment was not detected in MV4-11 cells treated with 5b because the compound was not effective in inducing apoptosis after 4 h of treatment (Figure 14B).

Experiment [6] deals with CEM. Kind of experiment: Cytotoxicity assay (resazurin), CEM. Particulars: Homo sapiens, CCRF-CEM, 72 h, three independent experiments, range 0.1 to 25 µM. It counts as cell-based. On the procedure: as §1
The test system of experiment [7] is K562. Briefly: Cytotoxicity assay (resazurin), K562. In kind it is cell-based. To be noted: Homo sapiens, 72 h, three independent experiments, range 0.1 to 25 µM. As to the method: as §1
Experiment [8] addresses Bcr-Abl1 (Homo sapiens, UniProt P00519). Briefly: Recombinant kinase radioassay, Abl. It counts as biochemical. Particulars: ATP 1 µM, at least three independent experiments, range 0.01–100 µM.
The test system of experiment [9] is Ramos. Kind of experiment: Cytotoxicity assay (resazurin), Ramos. In kind it is cell-based. Particulars: Homo sapiens, 72 h, three independent experiments, range 0.1 to 25 µM. As to the method: as §1
Experiment [10] concerns the target T2, FLT3-ITD (Homo sapiens, UniProt P36888, ITD).
T2 sequence (P36888 27-993): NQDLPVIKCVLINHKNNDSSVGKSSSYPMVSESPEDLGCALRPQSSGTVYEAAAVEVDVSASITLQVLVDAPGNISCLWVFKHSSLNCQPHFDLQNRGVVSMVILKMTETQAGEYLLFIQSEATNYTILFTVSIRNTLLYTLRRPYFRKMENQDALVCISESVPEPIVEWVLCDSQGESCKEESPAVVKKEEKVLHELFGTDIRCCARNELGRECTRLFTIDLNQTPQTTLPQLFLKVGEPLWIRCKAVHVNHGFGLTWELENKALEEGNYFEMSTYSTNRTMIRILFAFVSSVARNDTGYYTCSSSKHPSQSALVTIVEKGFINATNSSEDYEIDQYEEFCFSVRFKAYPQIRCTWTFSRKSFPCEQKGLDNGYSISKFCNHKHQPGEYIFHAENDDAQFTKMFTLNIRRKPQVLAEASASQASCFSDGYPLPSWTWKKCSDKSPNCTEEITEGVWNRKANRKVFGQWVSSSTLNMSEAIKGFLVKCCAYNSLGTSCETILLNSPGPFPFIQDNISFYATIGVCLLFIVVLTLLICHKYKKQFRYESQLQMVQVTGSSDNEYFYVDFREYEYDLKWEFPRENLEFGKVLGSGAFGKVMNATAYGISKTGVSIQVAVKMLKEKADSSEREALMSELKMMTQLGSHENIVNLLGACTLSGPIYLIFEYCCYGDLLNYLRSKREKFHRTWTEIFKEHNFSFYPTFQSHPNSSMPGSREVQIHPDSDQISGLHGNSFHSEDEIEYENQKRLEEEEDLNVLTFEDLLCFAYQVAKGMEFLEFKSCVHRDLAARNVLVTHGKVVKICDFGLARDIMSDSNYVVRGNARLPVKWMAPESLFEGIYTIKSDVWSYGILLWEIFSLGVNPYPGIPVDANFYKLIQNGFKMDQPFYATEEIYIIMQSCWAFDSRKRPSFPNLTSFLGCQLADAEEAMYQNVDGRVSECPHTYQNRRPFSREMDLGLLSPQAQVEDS
Kind of experiment: Recombinant kinase radioassay, FLT3-ITD. In kind it is biochemical. Particulars: recombinant kinase, radioassay; at least three independent experiments, range 0.01–100 µM; read-out: IC50 FLT3-ITD. In short, it runs like this:
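FLT3-ITD kinase, purchased from ProQinase, was tested in a standard radioassay with 100 µM poly (Glu:Tyr; 4:1) substrate, 0.05 µCi [γ-^33P]ATP and test compound in buffer of 60 mM HEPES-NaOH pH 7.5, 3 mM MgCl2, 3 mM MnCl2, 3 µM Na orthovanadate, 1.2 mM DTT and 2.5 µg/50 µL PEG20.000. Phosphorylated substrate was separated on P-81 phosphocellulose and quantified with a FLA-7000 image analyser.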

Experiment [11] concerns FLT3-ITD signalling in MV4-11 cells. Kind of experiment: Immunoblotting of FLT3-ITD-dependent pathway in MV4-11. In kind it is cell-based. Particulars: 4 h. As to the method:
Protein changes in the treated cells were analysed using immunoblotting. Briefly, cell lysates were separated on SDS-polyacrylamide gels and electroblotted onto nitrocellulose membranes. After blocking, overnight incubation with specific primary antibodies and incubation with peroxidase-conjugated secondary antibodies, the peroxidase activity was detected with Super-Signal West Pico reagents (Thermo Scientific, Waltham, MA, USA) using a CCD camera LAS-4000 (Fujifilm). The following specific antibodies were purchased from Cell Signalling: anti-FLT3 (clone 8F2), anti-phospho-FLT3 Y589/591 (clone 30D4), anti-STAT5 (clone D2O6Y), anti-phospho-STAT5 Y694, anti-ERK1/2, anti-phospho-ERK1/2 T202/Y204, anti-Akt (clone C67E7), anti-phospho-Akt S473 (clone D9E), anti-phospho-Bcr Y177, anti-CrkL (clone 32H4), anti-phospho-CrkL Y207, anti-BTK (clone C82B8), anti-phospho-BTK Y223, anti-PLCγ2, anti-phospho-PLCγ2 Y1217, and anti-PARP-1 (clone 46D11). Anti-α-tubulin (clone DM1A) was purchased from Sigma Aldrich.
Based on their inhibitory effects on recombinant kinases as well as cytotoxic effects in relevant cell line models, the purine derivatives 4i, 5b and 5j were selected for further experiments to confirm the expected molecular mechanism of action. The candidate compounds were tested to determine changes in signalling pathways downstream of the oncogenic kinases in cells. […]

Experiment [12] concerns HL-60. Briefly: Cytotoxicity assay (resazurin), HL-60. It counts as cell-based. To be noted: Homo sapiens, 72 h, three independent experiments, range 0.1 to 25 µM. On the procedure: as §1
Experiment [13] has as its target T3, BTK (Homo sapiens, UniProt Q06187).
T3 construct: purchased ProQinase
Briefly: Recombinant kinase radioassay, BTK. Particulars: recombinant kinase, radioassay, ATP 15 µM; at least three independent experiments, range 0.01–100 µM; read-out: IC50 BTK. In kind it is biochemical. A digest of the protocol: as §2

Sequence of Bcr-Abl1 (P00519 27-1130): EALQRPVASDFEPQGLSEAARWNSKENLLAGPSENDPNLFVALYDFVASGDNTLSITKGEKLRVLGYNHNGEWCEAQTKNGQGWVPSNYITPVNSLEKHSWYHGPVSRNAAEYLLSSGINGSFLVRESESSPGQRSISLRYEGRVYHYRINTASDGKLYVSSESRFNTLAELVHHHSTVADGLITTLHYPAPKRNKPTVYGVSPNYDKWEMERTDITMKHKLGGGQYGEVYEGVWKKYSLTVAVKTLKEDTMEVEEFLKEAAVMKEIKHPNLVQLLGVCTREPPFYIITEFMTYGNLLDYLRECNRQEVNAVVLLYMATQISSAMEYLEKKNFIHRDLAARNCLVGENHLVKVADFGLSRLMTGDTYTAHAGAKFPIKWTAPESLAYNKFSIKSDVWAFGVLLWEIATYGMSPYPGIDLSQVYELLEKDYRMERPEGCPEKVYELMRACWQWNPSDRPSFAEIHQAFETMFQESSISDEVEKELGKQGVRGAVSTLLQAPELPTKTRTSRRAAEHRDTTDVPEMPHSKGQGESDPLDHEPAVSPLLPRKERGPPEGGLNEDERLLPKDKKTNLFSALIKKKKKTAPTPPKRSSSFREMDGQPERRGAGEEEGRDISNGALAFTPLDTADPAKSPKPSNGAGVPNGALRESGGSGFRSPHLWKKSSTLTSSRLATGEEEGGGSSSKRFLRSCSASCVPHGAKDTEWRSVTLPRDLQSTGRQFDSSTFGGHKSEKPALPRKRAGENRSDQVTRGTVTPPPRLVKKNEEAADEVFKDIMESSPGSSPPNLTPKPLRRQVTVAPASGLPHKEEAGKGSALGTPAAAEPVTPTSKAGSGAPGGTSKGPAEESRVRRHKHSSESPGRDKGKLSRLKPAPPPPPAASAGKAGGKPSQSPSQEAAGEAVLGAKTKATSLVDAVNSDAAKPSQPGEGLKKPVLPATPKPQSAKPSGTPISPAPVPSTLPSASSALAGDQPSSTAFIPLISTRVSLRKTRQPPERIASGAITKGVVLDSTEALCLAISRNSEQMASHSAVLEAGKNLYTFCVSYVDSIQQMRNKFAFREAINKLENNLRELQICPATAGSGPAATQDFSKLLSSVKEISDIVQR
T3 sequence (Q06187 whole entry): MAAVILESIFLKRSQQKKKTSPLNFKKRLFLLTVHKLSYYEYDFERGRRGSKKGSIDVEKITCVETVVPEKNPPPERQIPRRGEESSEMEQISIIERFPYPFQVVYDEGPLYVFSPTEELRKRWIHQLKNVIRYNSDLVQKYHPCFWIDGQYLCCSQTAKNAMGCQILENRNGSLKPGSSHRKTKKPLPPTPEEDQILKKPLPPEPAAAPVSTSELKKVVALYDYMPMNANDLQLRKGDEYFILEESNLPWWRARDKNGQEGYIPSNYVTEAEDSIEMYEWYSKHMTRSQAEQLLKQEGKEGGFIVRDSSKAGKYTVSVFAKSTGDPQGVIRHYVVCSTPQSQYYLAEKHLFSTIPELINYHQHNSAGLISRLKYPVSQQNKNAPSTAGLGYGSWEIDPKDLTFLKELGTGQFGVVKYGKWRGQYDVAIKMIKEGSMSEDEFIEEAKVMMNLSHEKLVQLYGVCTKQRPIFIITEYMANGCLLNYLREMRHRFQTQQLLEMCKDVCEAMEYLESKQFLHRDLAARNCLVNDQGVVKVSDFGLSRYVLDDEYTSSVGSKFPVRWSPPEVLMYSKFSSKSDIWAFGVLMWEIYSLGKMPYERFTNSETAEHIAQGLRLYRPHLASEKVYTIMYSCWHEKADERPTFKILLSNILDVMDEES

In the case of `CC(C)CCn1cnc2c(Nc3cccc(F)c3)nc(Nc3ccc(N4CCN(C)CC4)cc3)nc21` [Compound 5b, N^6-(3-Fluorophenyl)-9-isopentyl-N^2-(4-(4-methylpiperazin-1-yl)phenyl)-9H-purine-2,6-diamine], the Cell cycle effect result in experiment [1] is “effectively induced G1 arrest”. Further, the “Caspase 3/7 induction” value in [2] was “a higher concentration of 5b was required for caspase induction”. The GI50 in experiment [3] is 2.89 ± 0.95 µM; in experiment [6], above 25 µM; in [7] it was 18.6 ± 3.73 µM; in [9], 18.7 ± 3.1 µM; in experiment [12], 2.04 ± 0.58 µM. In addition, the IC50 was 21.1 ± 1.91 µM in [4], above 50 µM in experiment [8], 0.38 µM in experiment [10] and 3.78 ± 0.86 µM in [13]. Moreover, the PARP-1 fragment result in experiment [5] is on record as “not detected”. For the same molecule, the “Phosphorylation of STAT5” value in [11] is reported as “inhibited”. In experiment [11] (increasing concentrations), the “Autophosphorylation of the oncogenic FLT3-ITD” value is reported as “clear suppression”.
